{"source": "paper PMC8364251", "about": "(Pharmacological Research, 2021)", "key": {"RBD": {"target": "RBD (Severe acute respiratory syndrome coronavirus 2, UniProt P0DTC2)", "details": "streptavidin probes; cited from earlier work"}, "Spike-RBD protein": {"target": "Spike-RBD protein (Severe acute respiratory syndrome coronavirus 2, UniProt P0DTC2)", "type": "binding, SARS-CoV-2", "details": "BLI screening"}, "authentic SARS-CoV-2": {"test_system": "authentic SARS-CoV-2", "details": "cited from earlier work"}, "RBD-ACE2 binding": {"target": "RBD-ACE2 binding (Severe acute respiratory syndrome coronavirus 2, UniProt P0DTC2)", "assay": "ELISA ACE2:SARS-CoV-2 Spike inhibitor screening assay", "details": "25–200 μM compounds"}, "SARS-CoV-2 [1]": {"test_system": "SARS-CoV-2", "assay": "Plaque formation assay", "details": "Vero E6"}, "[2]": {"test_system": "SARS-CoV-2-pseudotyped lentivirus", "type": "cell-based", "details": "concentrations up to 100 μM"}, "SARS-CoV-2 [3]": {"test_system": "SARS-CoV-2", "assay": "Authentic SARS-CoV-2 CPE reduction assay in Vero E6 cells", "type": "cell-based"}, "human ACE2": {"target": "human ACE2 (Homo sapiens, UniProt Q9BYF1)", "sequence (Q9BYF1 18-805)": "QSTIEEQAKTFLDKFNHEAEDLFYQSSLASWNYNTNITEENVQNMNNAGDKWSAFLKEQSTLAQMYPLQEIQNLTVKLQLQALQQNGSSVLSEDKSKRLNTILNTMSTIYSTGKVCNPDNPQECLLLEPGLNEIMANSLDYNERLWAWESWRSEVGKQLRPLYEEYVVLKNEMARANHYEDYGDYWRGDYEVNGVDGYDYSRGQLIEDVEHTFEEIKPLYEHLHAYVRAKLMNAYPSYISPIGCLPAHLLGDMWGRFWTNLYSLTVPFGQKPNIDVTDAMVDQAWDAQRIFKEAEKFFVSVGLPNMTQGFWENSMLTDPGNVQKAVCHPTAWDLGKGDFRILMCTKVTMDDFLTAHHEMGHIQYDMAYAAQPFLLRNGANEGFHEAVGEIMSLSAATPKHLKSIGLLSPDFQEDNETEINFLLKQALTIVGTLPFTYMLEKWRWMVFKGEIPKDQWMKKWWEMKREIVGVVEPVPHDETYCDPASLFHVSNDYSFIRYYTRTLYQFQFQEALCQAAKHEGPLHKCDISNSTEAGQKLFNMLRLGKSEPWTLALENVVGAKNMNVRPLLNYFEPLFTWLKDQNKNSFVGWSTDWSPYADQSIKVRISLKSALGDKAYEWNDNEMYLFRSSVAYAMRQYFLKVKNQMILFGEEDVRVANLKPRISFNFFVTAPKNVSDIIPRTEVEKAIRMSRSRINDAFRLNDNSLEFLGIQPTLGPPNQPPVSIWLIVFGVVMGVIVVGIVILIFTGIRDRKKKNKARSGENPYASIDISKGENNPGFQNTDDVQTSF", "type": "binding"}, "HEK293": {"test_system": "HEK293", "type": "cell-based, human", "details": "HEK293 cells"}, "[4]": {"details": "200 and 300 mg/kg/day oral, 7 days"}, "H1N1 influenza virus": {"test_system": "H1N1 influenza virus", "details": "cited from earlier work"}, "Ebola virus": {"test_system": "Ebola virus", "details": "cited from earlier work"}, "zika virus": {"test_system": "zika virus", "details": "cited from earlier work"}, "HIV-1 protease": {"test_system": "HIV-1 protease", "details": "cited from earlier work"}}, "note": "Entries after “also recorded” stand apart in the source; their conditions may differ.", "data": [{"molecule": "O=C(/C=C/c1ccc(O)c2oc(-c3ccc(O)c(O)c3)cc12)O[C@H](Cc1ccc(O)c(O)c1)C(=O)O", "note": "[SalC, Salvianolic acid C]", "values": [{"measurement": "binding activity to RBD measured by BLI", "setting": "RBD", "value": "weak binding activity to RBD"}, {"measurement": "Kd", "setting": "Spike-RBD protein", "value": 6.2, "unit": "µM"}]}, {"molecule": "CC(C)=CCc1cc2c(cc1O)O[C@H](c1ccc(O)cc1)CC2=O", "note": "[Bvc, bavachin]", "values": [{"measurement": "effect against authentic SARS-CoV-2", "setting": "authentic SARS-CoV-2", "value": "effective against authentic SARS-CoV-2"}, {"measurement": "activity in ELISA (inhibition of RBD-ACE2 binding)", "setting": "RBD-ACE2 binding", "value": "high activities"}]}, {"molecule": "O=C(/C=C/c1ccc(O)c(O)c1/C=C/c1ccc(O)c(O)c1)O[C@H](Cc1ccc(O)c(O)c1)C(=O)O", "note": "[SalA, salvianolic acid A]", "values": [{"measurement": "inhibition of plaque formation", "setting": "SARS-CoV-2 [1]", "value": "effective"}, {"measurement": "inhibition of pseudovirus entry", "setting": "[2]", "value": "weakly inhibited pseudovirus entry"}, {"measurement": "activity in ELISA (inhibition of RBD-ACE2 binding)", "setting": "RBD-ACE2 binding", "value": "high activities"}, {"measurement": "inhibition of SARS-CoV-2-induced cytopathic effect", "setting": "SARS-CoV-2 [3]", "value": "effective"}]}, {"molecule": "C=C[C@@](C)(/C=C/c1ccc(O)cc1)CCC=C(C)C", "note": "[Bkc, bakuchiol]", "values": [{"measurement": "inhibition of pseudovirus entry", "setting": "[2]", "value": "effectively inhibited pseudovirus entry"}, {"measurement": "activity in ELISA (inhibition of RBD-ACE2 binding)", "setting": "RBD-ACE2 binding", "value": "weakly active; also recorded: lacked activity"}, {"measurement": "binding to ACE2 in BLI", "setting": "human ACE2", "value": "bound to ACE2 receptor"}]}, {"molecule": "O=C(/C=C/c1ccc(O)c(O)c1)OC[C@H]1O[C@@H](OCCc2ccc(O)c(O)c2)[C@H](O)[C@@H](O)[C@@H]1O", "note": "[CalB, calceolarioside B]", "values": [{"measurement": "activity in ELISA (inhibition of RBD-ACE2 binding)", "setting": "RBD-ACE2 binding", "value": "weakly active"}]}, {"molecule": "COc1ccc(C[C@@H]2c3cc(Oc4cc(C[C@@H]5c6cc(O)c(OC)cc6CCN5C)ccc4O)c(OC)cc3CCN2C)cc1", "note": "[Isl, isoliensinine]", "values": [{"measurement": "effect against authentic SARS-CoV-2", "setting": "authentic SARS-CoV-2", "value": "effective against authentic SARS-CoV-2"}, {"measurement": "inhibition of plaque formation", "setting": "SARS-CoV-2 [1]", "value": "inhibited plaque formation"}, {"measurement": "cytotoxicity", "setting": "HEK293", "value": "toxicity"}, {"measurement": "activity in ELISA (inhibition of RBD-ACE2 binding)", "setting": "RBD-ACE2 binding", "value": "high activities"}]}, {"molecule": "bavachinin [Bvcn]", "values": [{"measurement": "activity in ELISA (inhibition of RBD-ACE2 binding)", "setting": "RBD-ACE2 binding", "value": "high activities"}]}, {"molecule": "CC(C)=CCc1c(O)ccc(C(=O)/C=C/c2ccc(O)cc2)c1O", "note": "[Ibvc, isobavachalcone]", "values": [{"measurement": "inhibition of plaque formation", "setting": "SARS-CoV-2 [1]", "value": "effective"}, {"measurement": "inhibition of pseudovirus entry", "setting": "[2]", "value": "effectively inhibited pseudovirus entry"}, {"measurement": "activity in ELISA (inhibition of RBD-ACE2 binding)", "setting": "RBD-ACE2 binding", "value": "weakly active; also recorded: lacked activity"}, {"measurement": "inhibition of SARS-CoV-2-induced cytopathic effect", "setting": "SARS-CoV-2 [3]", "value": "effective"}, {"measurement": "binding to ACE2 in BLI", "setting": "human ACE2", "value": "bound to ACE2 receptor"}]}, {"molecule": "COc1ccc2cc1Oc1ccc(cc1)C[C@H]1c3c(cc4c(c3Oc3cc5c(cc3OC)CCN(C)[C@@H]5C2)OCO4)CCN1C", "note": "[Ceph, cepharanthine]", "values": [{"measurement": "effect against authentic SARS-CoV-2", "setting": "authentic SARS-CoV-2", "value": "effective against authentic SARS-CoV-2"}, {"measurement": "activity in ELISA (inhibition of RBD-ACE2 binding)", "setting": "RBD-ACE2 binding", "value": "almost inactive"}]}, {"molecule": "C[C@H]1CC[C@@]2(OC1)O[C@H]1C[C@H]3[C@@H]4CC[C@@H]5C[C@@H](O[C@@H]6O[C@H](CO)[C@H](O)[C@H](O)[C@H]6O[C@@H]6O[C@H](CO)[C@@H](O)[C@H](O)[C@H]6O)CC[C@]5(C)[C@H]4CC[C@]3(C)[C@H]1[C@@H]2C", "note": "[TimA, timosaponin A III]", "values": [{"measurement": "activity in ELISA (inhibition of RBD-ACE2 binding)", "setting": "RBD-ACE2 binding", "value": "almost inactive"}]}, {"molecule": "O=C(O[C@@H]1Cc2c(O)cc(O)cc2O[C@@H]1c1cc(O)c(O)c(O)c1)c1cc(O)c(O)c(O)c1", "note": "[EGCG, epigallocatechin gallate]", "values": [{"measurement": "inhibition of plaque formation", "setting": "SARS-CoV-2 [1]", "value": "effective"}, {"measurement": "inhibition of pseudovirus entry", "setting": "[2]", "value": "effectively inhibited pseudovirus entry"}, {"measurement": "body weights", "setting": "[4]", "value": "no adverse effect"}, {"measurement": "survival", "setting": "[4]", "value": "no adverse effect"}, {"measurement": "organ weights", "setting": "[4]; liver, kidney, lung, spleen, thymus", "value": "no adverse effect"}, {"measurement": "activity in ELISA (inhibition of RBD-ACE2 binding)", "setting": "RBD-ACE2 binding", "value": "high activities"}, {"measurement": "EC50", "setting": "H1N1 influenza virus", "value": "22 to 28", "unit": "µM"}, {"measurement": "EC50", "setting": "Ebola virus", "value": 50, "unit": "µM"}, {"measurement": "inhibition of SARS-CoV-2-induced cytopathic effect", "setting": "SARS-CoV-2 [3]", "value": "effective"}, {"measurement": "EC50", "setting": "zika virus", "value": 21.4, "unit": "µM"}, {"measurement": "IC50", "setting": "HIV-1 protease", "value": "50 to 100", "unit": "µM"}, {"measurement": "binding to ACE2 in BLI", "setting": "human ACE2", "value": "bound to ACE2 receptor"}]}]}
